Measured values taken from patent US5242926A, “Therapeutic composition for treating hyperthyroidism” (priority 1992, dated 1993).
Entries after “also recorded” stand apart in the source; their conditions may differ.

Assays:
rat thyroid = test: Effect of each extracted layer of Corydalis on rat thyroid: body and thyroid weight, normal rats (Experiment 1); conditions: 50 mg/kg daily p.o., 14 days, vs control
Protocol: ICR mice may be used as testing animals in this invention, each having a weight of 18-25 grams. Sprague-Dawley rats each having a weight of 240±10 grams may also be used in this invention.
The mice or rats are placed in a metal cage by feeding 5 mice per group in each cage with solid foods and distilled water at least 1 week before performing the experiment at […] and humidity of 55±5%.
(§1) On the 15th day, each rat is intraperitoneally injected with pentobarbital 50 mg/kg and narcotized. The rat abdominal cavity is cut to take the thyroid out for weighing and for examining pathological section, which is stained with H-E stain to facilitate observation of pathologic changes.

[1] = tested on: hyperthyroidism in rats (TSH, T3, T4, FT3 and FT4 in the bloods); test: Effect of PBT and THP on serum TSH, T3, T4, FT3, FT4, L-T4 induced hyperthyroidism rats (Experiment 3); format: in vivo, female Sprague-Dawley rats
Protocol: (§2) The female Sprague-Dawley rats, each weighs 260±15 grams, are divided into 5 groups of 6 rats, each rat being subcutaneously injected (s.c.) with L-T4 300 μg/kg daily for continuous 12 days to induce hyperthyroidism in each rats. […] The control group is treted with saline. After continuous treatment of 10 days as described above, each rat is injected (I.P.) with pentobarbitol 50 mg/kg and narcotized on the eleventh day, and then extracted the arterial blood for measuring concentrations of TSH, T3, T4, FT3 and FT4 in the bloods.

[2] = tested on: hyperthyroidism in rats (TSH, T3, T4, free T3 and free T4 in the serum); test: Serum TSH, T3, T4, FT3, FT4 by RIA, L-T4 induced hyperthyroidism rats (Experiment 2); format: in vivo, female Sprague-Dawley rats
Protocol: The female Sprague-Dawley rats each having a weight of 250±10 grams are subcutaneously injected (S.C.) for 12 days with a daily dose of 300 μg/kg for each rat to induce hyperthyroidism. […] Then, the rat abdominal cavity is cut to extract arterial blood which is settled for 2 hours at room temperature and is centrifuged at 2500 rpm for 10 minutes for separating the serum.
The concentrations of TSH, T3, T4, free T3 and free T4 in the serum by RIA methods.

[3] = tested on: rat thyroid, pituitary and suprarenal gland; test: Effect of THP on rat thyroid, pituitary and suprarenal gland weight (Experiment 6); format: in vivo, rats (Sprague-Dawley); conditions: PTU, 14 days
[4] = tested on: blood cholesterol and triglyceride in rats; test: Effects of THP on blood cholesterol, triglyceride and T4 in L-T4 induced hyperthyroidism rats (Experiment 5); format: in vivo, rats (Sprague-Dawley); conditions: 10 days
[5] = tested on: thyroid function of normal rats; test: Effect of dl-tetrahydropalmatine (THP) on thyroid function of normal rats (Experiment 4)
Protocol: as §1
The method of experiment 1 is repeated by daily treating dl-tetrahydropalmatine (THP) 2.5 mg/kg, 5.0 mg/kg and 10 mg/kg (I.P.) respectively for continuous 14 days.

[6] = tested on: TSH, T3, T4, FT3 and FT4 in bloods; test: Effect of PBT and THP on serum TSH, T3, T4, FT3, FT4, normal rats (Experiment 3); format: in vivo, female Sprague-Dawley rats
Protocol: The female Sprague-Dawley rats, each weights 270±15 grams, are divided into 5 groups of 6 rats, for following daily treatment for continuous 10 days, except a normal group for control.
On the eleventh days, each rat is injected (I.P.) with pentobarbital 50 mg/kg and narcotized for extracting arterial blood which is settled for 2 hours at room temperature and centrifuged at 2500 rpm for 10 minutes to separate the serum. The concentrations of TSH, T3, T4, FT3 and FT4 in bloods are analyzed by RIA methods. The normal control group is treated with saline and analyzed by the same methods.

thyroid follicle cells = test: Thyroid pathological section, H-E stain, normal rats (Experiment 1); format: in vivo, female Sprague-Dawley rats; conditions: 50 mg/kg daily p.o., 14 days
[7] = tested on: blood cholesterol and triglyceride in rats; test: Effects of THP on blood cholesterol, triglyceride and T4 in L-T4 induced hyperthyroidism rats (Experiment 5); format: in vivo, rats (Sprague-Dawley); conditions: 10 days; remark: listed apart in the source
Protocol: as §2

[8] = L-T4 induced hyperthyroidism rats, PTU 5 mg/kg p.o., 10 days
[9] = hyperthyroidism rats, PTU 5.0 mg/kg
[10] = L-T4 induced hyperthyroidism rats, THP 5 mg/kg i.p., 10 days
[11] = hyperthyroidism rats, THP 5 mg/kg, I.P.
[12] = hyperthyroidism rats, THP 2.5 mg/kg i.p.
[13] = hyperthyroidism rats, THP 5 mg/kg i.p.
[14] = hyperthyroidism rats, THP 10.0 mg/kg i.p.
[15] = THP 50 mg/kg [sic], i.p., 10 days

CCCc1cc(=O)[nH]c(=S)[nH]1 [PTU, propylthiouracil]
changes in thyroid weight (in words) (rat thyroid): clearly shows an increase thyroid weight (P<0.001); also recorded: may increase thyroid weight
FT3 [1, 8]: 2.01 ± 0.25 ng/dL
FT4 [1, 8]: 3.24 ± 0.98 ng/dL
T3 [1, 8]: 30.25 ± 3.25 ng/dL
T4 [1, 8]: 1.95 ± 0.25 µg/dL
TSH [1, 8]: 3.98 ± 0.51 μu/ml
effect on T3, T4, FT3 and FT4 (in words) ([1]; hyperthyroidism rats, PTU 5 mg/kg, P.O.): may decrease the T3 (P<0.001), T4 (P<0.001), FT3 (P<0.001) and FT4 (P<0.001)
TSH ([1]; hyperthyroidism rats, PTU 5 mg/kg, P.O., increase from 0.99±0.11, P<0.001): 3.98 ± 0.51 µg/mL
effect on T3, T4, FT3 and FT4 (in words) ([2]; PTU 5 mg/kg): may remarkably reduce the concentrations of T3 (P <0.001), T4 (P<0.001), FT3 (P<0.01) and FT4 (P<0.001)
effect on TSH (in words) ([2]; PTU 5 mg/kg): remarkably increase TSH (P<0.01)
FT3 ([2]; PTU 5 mg/kg p.o.): 0.44 ± 0.02 ng/dL
FT4 ([2]; PTU 5 mg/kg p.o.): 0.47 ± 0.04 ng/dL
T3 ([2]; PTU 5 mg/kg p.o.): 17.92 ± 1.43 ng/dL
T4 ([2]; PTU 5 mg/kg p.o.): 1.11 ± 0.02 µg/dL
TSH ([2]; PTU 5 mg/kg p.o.): 3.98 ± 0.40 µg/mL
effect on follicle cells and colloid (in words) [3]: expansion of follicle cells and colloidal loss
effect on thyroid weight (in words) [3]: increase of thyroid weight
Cholesterol [4, 9]: 73.9 ± 3.2 mg/dL
T4 [4, 9]: 1.2 ± 0.2 µg/dL
Triglyceride [4, 9]: 35.6 ± 3.2 mg/dL
effect on T3, T4, FT3 and FT4 (in words) ([5]; PTU): reduces the T3, T4, FT3 and FT4
effect on TSH (in words) ([5]; PTU): increases the TSH concentration
effect on thyroid follicle cells and colloid (in words) ([5]; PTU): expand thyroid follicle cells and cause colloidal loss
FT3 ([5]; PTU 5.0 mg/kg): 0.4 ± 0.1 ng/dL
FT4 ([5]; PTU 5.0 mg/kg): 0.4 ± 0.1 ng/dL
T3 ([5]; PTU 5.0 mg/kg): 31.8 ± 3.1 ng/dL
T4 ([5]; PTU 5.0 mg/kg): 0.9 ± 0.1 µg/dL
TSH ([5]; PTU 5.0 mg/kg): 4.5 ± 0.4 μu/ml
effect on T3, T4, FT3 and FT4 (in words) ([6]; PTU 5 mg/kg P.O.): will remarkably reduce T3 (P<0.001), T4 (P<0.001), FT3 (P<0.001) and FT4 (P<0.001)
TSH ([6]; PTU 5 mg/kg P.O., increase from 2.28±0.16 μu/ml, P<0.001): 4.54±0.01 μm/ml
FT3 ([6]; PTU 5 mg/kg p.o., 10 days): 0.37 ± 0.10 ng/dL
FT4 ([6]; PTU 5 mg/kg p.o., 10 days): 0.35 ± 0.09 ng/dL
T3 ([6]; PTU 5 mg/kg p.o., 10 days): 31.77 ± 3.10 µg/dL
T4 ([6]; PTU 5 mg/kg p.o., 10 days): 0.92 ± 0.14 µg/dL
TSH ([6]; PTU 5 mg/kg p.o., 10 days): 4.54 ± 0.41 μu/ml
pathologic section of the thyroid (in words) (thyroid follicle cells): remarkable expansion of the thyroid follicle cells and their colloidal loss; also recorded: will cause the formation of follicle cells, and loss of colloid

COc1cc2c(cc1OC)C1Cc3ccc(OC)c(OC)c3CN1CC2 (racemic) [THP, dl-tetrahydropalmatine]
FT3 [1, 10]: 1.42 ± 0.62 ng/dL
FT4 [1, 10]: 5.27 ± 1.05 ng/dL
T3 [1, 10]: 42.36 ± 4.25 ng/dL
T4 [1, 10]: 4.91 ± 0.17 µg/dL
TSH [1, 10]: 0.77 ± 0.10 μu/ml
effect on T3, T4, FT3 and FT4 (in words, summary) ([1]; hyperthyroidism rats): may markedly decrease the concentration of T3, T4, FT3 and FT4
effect on TSH (in words, summary) ([1]; hyperthyroidism rats): will not influence the TSH concentration in the blood
effect on T3, T4, FT3 and FT4 (in words) [1, 11]: will greatly reduce T3 (P<0.01), T4 (P<0.05), FT3 (P<0.01) and FT4 (P<0.01)
effect on TSH (in words) [1, 11]: no remarkable influence on TSH concentration
pharmacological effect relative to PBT (in words) ([1]; hyperthyroidism rats, THP dosage much smaller than PBT dose): not less than that of the PBT
T4 ([7]; THP 2.5 mg/kg i.p.): 3.3 ± 0.4 µg/dL
T4 ([7]; THP 5 mg/kg i.p.): 3.1 ± 0.5 µg/dL
T4 ([7]; THP 10.0 mg/kg i.p.): 3.2 ± 0.5 µg/dL
effect on cholesterol compared with PTU (in words) ([4]; THP i.p.): increases the cholesterol by a much smaller amount than PTU
Cholesterol [4, 12]: 57.5 ± 3.5 mg/dL
Triglyceride [4, 12]: 29.5 ± 3.5 mg/dL
Cholesterol [4, 13]: 58.5 ± 3.4 mg/dL
Triglyceride [4, 13]: 31.1 ± 5.4 mg/dL
Cholesterol [4, 14]: 56.5 ± 4.6 mg/dL
Triglyceride [4, 14]: 30.6 ± 5.1 mg/dL
effect on triglyceride compared with PTU (in words) ([4]; hyperthyroidism rats, THP i.p.): may reduce the triglyceride of the hyperthyroidism rats to be superior to PTU
FT3 ([5]; THP 2.5 mg/kg i.p., 14 days): 1.3 ± 0.1 ng/dL
FT4 ([5]; THP 2.5 mg/kg i.p., 14 days): 1.7 ± 0.5 ng/dL
T3 ([5]; THP 2.5 mg/kg i.p., 14 days): 56.8 ± 3.1 ng/dL
T4 ([5]; THP 2.5 mg/kg i.p., 14 days): 2.3 ± 0.5 µg/dL
TSH ([5]; THP 2.5 mg/kg i.p., 14 days): 1.9 ± 0.1 μu/ml
FT3 ([5]; THP 5.0 mg/kg i.p., 14 days): 1.2 ± 0.2 ng/dL
FT4 ([5]; THP 5.0 mg/kg i.p., 14 days): 2.1 ± 0.2 ng/dL
T3 ([5]; THP 5.0 mg/kg i.p., 14 days): 58.8 ± 3.7 ng/dL
T4 ([5]; THP 5.0 mg/kg i.p., 14 days): 2.5 ± 0.2 µg/dL
TSH ([5]; THP 5.0 mg/kg i.p., 14 days): 2.5 ± 0.4 μu/ml
FT4 ([5]; THP 10.0 mg/kg i.p., 14 days): 1.9 ± 1.5 ng/dL
T3 ([5]; THP 10.0 mg/kg i.p., 14 days): 49.1 ± 2.5 ng/dL
T4 ([5]; THP 10.0 mg/kg i.p., 14 days): 2.3 ± 0.3 µg/dL
TSH ([5]; THP 10.0 mg/kg i.p., 14 days): 1.9 ± 0.1 μu/ml
effect on T3, T4, FT3, FT4 and TSH (in words) ([5]; THP 2.5, 5.0 and 10 mg/kg i.p., 14 days): no influence on the concentrations of T3, T4, FT3, FT4 and TSH
FT3 [6, 15]: 1.18 ± 0.01 ng/dL
FT4 [6, 15]: 1.97 ± 0.14 ng/dL
T3 [6, 15]: 49.05 ± 2.45 µg/dL
T4 [6, 15]: 2.32 ± 0.25 µg/dL
TSH [6, 15]: 1.89 ± 0.13 μu/ml
